Data taken from ChEMBL document CHEMBL4842381, “A Novel, Selective c-Abl Inhibitor, Compound 5, Prevents Neurodegeneration in Parkinson's Disease” (J Med Chem, 2021).

Experiments:
in vivo [1] = details: ICR, mouse, plasma, po, 5 mg/kg
in vivo [2] = details: ICR, mouse, plasma, po, 5 mg/kg; remark: listed apart in the source
in vivo [3] = details: ICR, mouse, brain/plasma, po, 5 mg/kg
in vivo [4] = details: ICR, mouse, plasma, po, 5 mg/kg; remark: listed apart in the source
in vivo [5] = details: ICR, mouse, plasma, po, 5 mg/kg; remark: listed apart in the source

Structure (SMILES) | Tmax at 24 h (in vivo [1]) [h] | Cmax at 24 h (in vivo [2]) [ng/mL] | Kp uu at 24 h (in vivo [3]) | AUC(0-inf) at 24 h (in vivo [4]) [ng·h/mL] | half-life at 24 h (in vivo [5]) [h]
Cc1cn(-c2cc(NC(=O)c3ccc(C)c(Nc4nccc(-c5cccnc5)n4)c3)cc(C(F)(F)F)c2)cn1 [NILOTINIB] | 1 | – | – | – | –
Cc1c(F)cncc1-c1ccc2nc(NC(=O)[C@@H]3C[C@@H]3F)sc2c1 | 1.2 | 4260 | 0.21 | 25000 | 1.8
